From patent publication US6531456B1, “Gene therapy for the treatment of solid tumors using recombinant adeno-associated virus vectors” (Avigen, Inc., priority 1996, dated 2003)

Columns and labels:
[1] = 3 patients; cited from earlier work
[2] = test system: human U-251SP glioma cells; experiment: In vitro sensitivity of rAAVtk-IRES-hIL2-transduced cells to ganciclovir; format: cell-based
Method: More particularly, transduced cells were exposed to varying amounts of GCV to assess their sensitivity to the pro-drug. In the study 1×10^4 human U-251SP glioma cells were incubated for 12 hours with rAAVtk-IRES-hIL2 at MOIs of 0, 3×10^2, 3×10^3, 3×10^4, 3×10^5, and 3×10^6. The transduced cells were then incubated for an additional 72 hours in fresh medium containing serial dilutions of GCV at a final concentration of from 0.1-100 μg/mL.
In order to determine if cells transduced with the HSV-tk gene had enhanced susceptibility to the cytocidal effects of GCV, the following study was carried out. Recombinant AAV virion-transduced cells were exposed to varying amounts of GCV to assess their sensitivity to the drug. Particularly, 1×10^4 human U-251SP glioma cells/well (cultured in 200 μL of complete medium) were incubated with various concentrations of rAAVtk-IRES-hIL2 (at MOIs of 0, 3×10^2, 3×10^3, 3×10^4, 3×10^5, and 3×10^6) for 12 hours. The transduced cells were then incubated for an additional 72 hours in fresh medium containing serial dilutions of GCV at a final concentration of from 0.1-100 μg/mL. The numbers of living cells were then determined using the trypan blue dye exclusion method, and compared with those of nontransduced cells cultured without GCV treatment.

U-251SP cells = experiment: In vitro bystander tumoricidal effect, coculture of transduced and non-transduced cells; format: cell-based, human; details: 4.5 μg/mL ganciclovir, 3 days
Method: FIG. 3 depicts the in vitro cytocidal bystander effect observed in non-transduced cells that were cultured with HSV-tk transduced cells as described in Example 3. Cell co-cultures containing a total of 1×10^4 cells were formed by combining cells that were transduced with rAAVtk-IRES-hIL2 virions at the following ratios: 1:0, 1:1, 1:10, 1:100 and 0:1 (transduced:nontransduced cells). After a 24 hour incubation, the co-cultures were exposed to 4.5 μg/mL of ganciclovir and allowed to incubate for an additional 3 days. Numbers of living cells were counted using the trypan blue dye exclusion method. The Figure indicates % cell survival compared to the cultures containing only non-transduced cells (0:1). The data is presented a mean +/− a standard error deviation based on duplicate experiments.
In order to assess the in vitro bystander tumoricidal effect of HSV-tk transduced cells on neighboring non-transduced cells, the following study was carried out. U-251SP cells were incubated for 12 hours in DMEM medium containing rAAVtk-IRES-hIL2 virions at a MOI of 1.9×10^6. Since this MOI was greater than the MOI determined necessary for 100% transduction by the rAAVlacZ virions (e.g., 3×10^5 as determined above in Example 1), the incubated cells were considered to be 100% transduced. The rAAVtk-IRES-hIL2 transduced cells were cocultured with non-transduced U-251SP cells at ratios of 1:0, 1:1, 1:10, 1:100 and 0:1 (transduced:nontransduced cells) to provide 1×10^4 total cells per well in a 24 well tissue culture plate. 24 hours after the coculture was initiated, 4.5 μg/mL of ganciclovir (DENOSINE® Roche, Basel, Switzerland) was added to each well in fresh media. After 3 days, the numbers of living cells were determined using the trypan blue dye exclusion method.

## Nc1nc(O)c2ncn(COC(CO)CO)c2n1 [GCV, ganciclovir]
[1]
  concentration in the CSF: 310 to 680 ng/mL
  concentration in the plasma: 440 to 2200 ng/mL
[2]; 4.5 μg/mL of GCV, rAAVtk-IRES-hIL2 at a MOI of 3×10^3
  inhibition: more than 80%
[2]; Homo sapiens, Glioma cell, GCV 72 hours, cells exposed to rAAVtk-IRES-hIL2 at a MOI of 3×10^3 or greater, read-out: TCID50
  IC50: < 0.28 µg/mL
[2]; high doses of GCV, non-transduced cells
  effect on cell growth: mild inhibitory effect
U-251SP cells; 1% rAAVtk-IRES-hIL2-transduced cells (1:100)
  tumoricidal effect compared with only non-transduced cells (0:1): 15.1%
U-251SP cells; 10% rAAVtk-IRES-hIL2-transduced cells (1:10)
  tumoricidal effect compared with only non-transduced cells (0:1): 58.1%
U-251SP cells; 50% rAAVtk-IRES-hIL2-transduced cells (1:1)
  sensitivity to GCV killing: as sensitive to GCV killing as were cultures containing 100% transduced cells
